Experimental data taken from patent publication US20260240810A1, “COMPOSITIONS AND METHODS FOR REDUCING ADVERSE SIDE EFFECTS IN CANCER TREATMENT” (priority 2022, published 2026).
Several values for one entry are separate records, joined by “and”; a condition that tells them apart may be missing. Equal values may be shown once.

What was measured:
[1] = pharmacokinetic data, J. Scicinski et al. 2011; cited from earlier work
hemoglobin = biological target: T1, hemoglobin (Homo sapiens, UniProt P68871); assay: 14C-RRx-001 binding to hemoglobin in blood; details: blood of rats, dogs, monkeys, humans; liquid scintillation counter
T1 construct: blood not pooled from 3 individual male humans; from tissue; host or cells: whole blood of 3 individual male humans
T1 sequence (P68871 2-147 limits assumed): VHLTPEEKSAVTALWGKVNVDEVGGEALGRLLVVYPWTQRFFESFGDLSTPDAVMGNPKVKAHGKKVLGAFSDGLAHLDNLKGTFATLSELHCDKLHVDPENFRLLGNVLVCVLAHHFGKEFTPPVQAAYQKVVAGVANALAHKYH
T1 sequence (P69905 2-142 partner limits assumed): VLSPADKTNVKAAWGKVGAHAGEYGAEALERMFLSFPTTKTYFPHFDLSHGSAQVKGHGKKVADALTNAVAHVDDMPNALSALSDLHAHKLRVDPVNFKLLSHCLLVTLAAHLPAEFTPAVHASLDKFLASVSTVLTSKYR
Experimental: ^14C-RRx-001 (1 μM and 20 μM) was incubated at a temperature of 37° C. for a time period of 30 minutes with blood pooled from 3 male Sprague Dawley rats, 3 male beagle dogs, and 2 male cynomolgus monkeys, and blood not pooled from 3 individual male humans. […] The range of binding to the 3 different human hemoglobin varied from 24% to 34%.

[2] = system: oral mucositis induced by acute radiation in hamsters; assay: Oral mucositis induced by acute radiation in hamsters; assay type: in vivo, Golden Hamsters
Experimental: Referring to FIG. 11, FIG. 11 is a table 1100 showing a study design for an assessment of RRx-001 for the treatment of oral mucositis induced by acute radiation in hamsters. Mucositis was induced in 56 male Golden Hamsters via an acute radiation dose of 40 Gy directed to their left buccal cheek pouch. RRX-001 was administered with a vehicle comprising a 1:2 vol; vol ratio of N,N-Dimethylacetamide/40% Polyethylene Glycol (DMA:PBG). […] Otherwise, dosing was administered according to the “Dose Schedule” column of the table 1100. The study lasted 28 days. Mucositis was evaluated in hamsters from day 6 through day 28.
Starting at day 6 of the study and continuing every second day thereafter (day 8, 10, 12, 14, 16, 18, 20, 22, 24, 26, and 28), the hamsters were photographed and evaluated for mucositis scoring. The hamsters were anesthetized and the left pouch everted to evaluate a score each hamster based on a severity of mucositis. The scores, on a scale of 0-5, are defined as follows: • “0” means a pouch is completely healthy. • “1” means light to […] erythema and vasodilation and no erosion of mucosa. • “2” means severe erythema and vasodilation. Erosion of superficial aspects of mucosa leaving denuded areas. Decreased stippling of mucosa. • “3” means formation of off-white ulcers in one or more places. Ulcers may have a yellow/gray color due to pseudomembrane. Cumulative size of ulcers should equal less than or equal to ¼ of the pouch. Severe erythema and vasodilation. • “4” means a cumulative seize of ulcers should equal about ½ of the pouch. Loss of pliability. Severe erythema and vasodilation. • “5” means virtually all of pouch is ulcerated. Loss of pliability (pouch can only partially be extracted from mouth).
FIG. 15B is a bar graph 1550 showing a percent of cumulative animal days with mucositis scores greater than or equal to 3 for days 6-28. Statistical significance of the observed differences was calculated using chi-squared analysis.
FIG. 16B is a bar graph 1650 showing a percent of cumulative animal days with mucositis scores greater than or equal to 3 for days 6-28. Statistical significance of the observed differences was calculated using chi-squared analysis.
Referring to FIG. 18, FIG. 18 is a table 1800 showing a percent of hamsters with ulceration by day with mucositis scores of greater than or equal to 3. Each data point represents a percentage of hamsters in each group on a day that had both a mucositis score of 3 or greater and open ulcers. Like FIGS. 17A and 17B, horizontal shading denotes a decrease in mucositis scores and vertical shading denotes an increase in mucositis scores.

[3] = system: squamous cell carcinoma of the oral cavity or oropharynx; assay: PREVLAR trial: tumor response and cancer recurrence; assay type: in vivo, human
Text: Referring to FIG. 6, FIG. 6 is a table 600 showing various incidences of outcomes for patients in Arm 4 of the PREVLAR study vs. patients in Arms 1, 2, and 3 of the PREVLAR study. The various outcomes include a complete response (CR), a partial response (PR), a CR or PR, not evaluable (NE), and missing. […] Thus, administration of RRx-001 was correlated to better outcomes.
Referring to FIG. 10, FIG. 10 is a bar graph 1000 showing a percentage of less cancer recurrence in RRx-001 treated patients. Accordingly, a higher percentage is correlated to the better outcome of lower cancer recurrence. […] Patients in Arm 4 had the lowest percentage drop of 30.8% of cancer recurrence.
The treatment phase commenced 2 weeks before the start of CRT and continued until the LDRT. The short-term follow-up stage started the day after LDRT and continued until complete resolution of ulcerative OM (World Health Organization (WHO) grade≤1 or 6 weeks after the LDRT, whichever came first). Long-term follow-up was performed to assess tumor response for 12 months after the LDRT. OM was assessed twice weekly beginning on the first day of CRT and continuing to resolution of ulcerative OM by trained evaluators using a standardized data collection tool.

## O=C(CBr)N1CC([N+](=O)[O-])([N+](=O)[O-])C1 [RRx-001, 2-bromo-1-(3,3-dinitroazetidin-1-yl) ethan-1-one]
[1]
  half-life of RRx-001: under an hour
hemoglobin
  partitioning of radioactivity in blood: highly partition into red blood cells and covalently bind to hemoglobin
[2]; day 12, group 2 (10 mg/kg, discontinued after day 1)
  percent of hamsters with ulceration (mucositis score ≥3): 40%
[2]; day 28, group 2 (10 mg/kg, discontinued after day 1)
  percent of hamsters with ulceration (mucositis score ≥3): 40%
[2]; day 28, group 2 (10 mg/kg, dosing discontinued after day 1)
  mean daily mucositis score: approximately 2.2
[2]; day 28, group 3 (3 mg/kg)
  mean daily mucositis score: approximately 2.7
[2]; day 28, group 5 (10 mg/kg, discontinued after day 1)
  percent of hamsters with ulceration (mucositis score ≥3): 57.1%
[2]; day 28, group 5 (10 mg/kg, dosing discontinued after day 1)
  mean daily mucositis score: approximately 2.6
[2]; day 28, group 6 (3 mg/kg)
  mean daily mucositis score: approximately 2.7
[2]; day 28, groups 3 and 6 (3 mg/kg)
  percent of hamsters with ulceration (mucositis score ≥3): 75.0%
[2]; day 28, groups 4 and 7 (1 mg/kg)
  percent of hamsters with ulceration (mucositis score ≥3): 62.5%
[2]; days 6-28, group 3 (3 mg/kg)
  percent of cumulative animal days with mucositis score greater than or equal to 3: 63.54%
[2]; days 6-28, group 6 (3 mg/kg), 3 mg/kg
  percent of cumulative animal days with mucositis score greater than or equal to 3: 53.45% and 63.54%
[2]; groups 2 and 5 (10 mg/kg)
  body weight change: initially lost weight, but rebounded
  tolerability of dosing: discontinued after day 1 due to adverse side effects
[3]; Arm 1
  percentage drop of cancer recurrence: 50%
[3]; Arm 2
  percentage drop of cancer recurrence: 53.8%
[3]; Arm 3
  percentage drop of cancer recurrence: 76.9%
[3]; patients in Arms 1, 2, or 3
  incidence of either CR or PR: 65.7%
[3]; patients that received RRx-001 in Arms 1, 2, or 3
  incidence of complete response (CR): 48.6%
